How the values were obtained:
goosegrass = experiment: Test D goosegrass; format: in vivo, Eleusine indica; conditions: Preemergence, 0 to 100 scale
In short: (§1)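 Values are visual plant-response ratings (0 no injury, 100 complete control) recorded 14 to 21 days after herbicide treatment, using a non-phytotoxic solvent mixture containing surfactant. Preemergence applications went to the surface of pots holding freshly sown seed in sandy loam.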

purple nutsedge = experiment: Test D purple nutsedge; format: in vivo, Cyperus rotundus; conditions: Preemergence, 0 to 100 scale
In short: as §1

Johnson grass = experiment: Test D Johnson grass; format: in vivo, Sorghum halepense; conditions: Preemergence, 0 to 100 scale
In short: as §1

guineagrass = experiment: Test D guineagrass; format: in vivo, Panicum maximum; conditions: Preemergence, 0 to 100 scale
In short: as §1

Alexandergrass = experiment: Test D Alexandergrass; format: in vivo, Brachiaria plantaginea; conditions: Preemergence, 0 to 100 scale
In short: as §1

dallisgrass = experiment: Test D dallisgrass; format: in vivo, Paspalum dilatatum; conditions: Preemergence, 0 to 100 scale
In short: as §1

pitted morningglory = experiment: Test D pitted morningglory; format: in vivo, Ipomoea lacunosa; conditions: Preemergence, 0 to 100 scale
In short: as §1

bermuda-grass = experiment: Test D bermudagrass; format: in vivo, Cynodon dactylon; conditions: Preemergence, 0 to 100 scale
In short: as §1

Spanishneedles = experiment: Test D Spanishneedles; format: in vivo, Bidens bipinnata; conditions: Preemergence, 0 to 100 scale
In short: as §1

large crabgrass = experiment: Test D large crabgrass; format: in vivo, Digitaria sanguinalis; conditions: Preemergence, 0 to 100 scale
In short: as §1

tall mallow = experiment: Test D tall mallow; format: in vivo, Malva sylvestris; conditions: Preemergence, 0 to 100 scale
In short: as §1

surinam grass = experiment: Test D surinam grass; format: in vivo, Brachiaria decumbens; conditions: Preemergence, 0 to 100 scale
In short: as §1

Green foxtail [1] = experiment: Test D green foxtail; format: in vivo; conditions: Preemergence, 0 to 100 scale
In short: as §1

Green foxtail [2] = experiment: Test D green foxtail; format: in vivo
In short: as §1

common groundsel = experiment: Test D common groundsel; format: in vivo, Senecio vulgaris; conditions: Preemergence, 0 to 100 scale
In short: as §1

sandbur = experiment: Test D sandbur; format: in vivo, Cenchrus echinatus; conditions: Preemergence, 0 to 100 scale
In short: as §1

itchgrass = experiment: Test D itchgrass; format: in vivo, Rottboellia exaltata; conditions: Preemergence, 0 to 100 scale
In short: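 Scoring used a 0–100 visual injury scale, with 0 meaning no effect and 100 complete control, assessed 14–21 days after application alongside untreated pots. Preemergence treatments went onto sandy loam surfaces of separately potted seeds within a day of sowing.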

[3] = Rate 16 g/ha, 0 no injury, 100 complete control
[4] = Rate 32 g/ha, 0 no injury, 100 complete control
[5] = Rate 64 g/ha, 0 no injury, 100 complete control
[6] = Rate 125 g/ha, 0 no injury, 100 complete control
[7] = Rate 64 g/ha, Preemergence; 0 to 100 scale, 0 no injury, 100 complete control
[8] = Rate 125 g/ha, Preemergence; 0 to 100 scale, 0 no injury, 100 complete control
[9] = Rate 500 g/ha, Preemergence; 0 to 100 scale

## CC(C)N(C(=O)n1oc(=O)n(C2CCCCC2)c1=O)c1ccc(F)cc1F [Compound 115]
goosegrass; [3]
  Plant response rating, Goosegrass: 20
goosegrass; [4]
  Plant response rating, Goosegrass: 85
goosegrass; [5]
  Plant response rating, Goosegrass: 90
goosegrass; [6]
  Plant response rating, Goosegrass: 98
goosegrass; Rate 250 g/ha
  Plant response rating, Goosegrass: 100
goosegrass; Rate 500 g/ha
  Plant response rating, Goosegrass: 100
Purple nutsedge; [3]
  Plant response rating, Purple nutsedge: 0
Purple nutsedge; [4]
  Plant response rating, Purple nutsedge: 0
Purple nutsedge; [5]
  Purple nutsedge plant response rating: 0
Purple nutsedge; [6]
  Purple nutsedge plant response rating: 0
Purple nutsedge; Rate 250 g/ha
  Plant response rating, Purple nutsedge: 0
Purple nutsedge; Rate 500 g/ha
  Plant response rating, Purple nutsedge: 0
Johnson grass; [3]
  Plant response rating Johnsongrass: 0
Johnson grass; [4]
  Plant response rating Johnsongrass: 40
Johnson grass; [5]
  Plant response rating Johnsongrass: 40
Johnson grass; [6]
  Plant response rating Johnsongrass: 60
Johnson grass; Rate 250 g/ha
  Plant response rating Johnsongrass: 75
Johnson grass; Rate 500 g/ha
  Plant response rating Johnsongrass: 90
guineagrass; [3]
  Plant response rating, Guineagrass: 0
guineagrass; [4]
  Plant response rating, Guineagrass: 30
guineagrass; [5]
  Plant response rating, Guineagrass: 30
guineagrass; [6]
  Plant response rating, Guineagrass: 85
guineagrass; Rate 250 g/ha
  Plant response rating, Guineagrass: 98
guineagrass; Rate 500 g/ha
  Plant response rating, Guineagrass: 100
Alexandergrass; [3]
  Plant response rating, Alexandergrass: 0
Alexandergrass; [4]
  Plant response rating, Alexandergrass: 20
Alexandergrass; [5]
  Plant response rating, Alexandergrass: 50
Alexandergrass; [6]
  Plant response rating, Alexandergrass: 75
Alexandergrass; Rate 250 g/ha
  Plant response rating, Alexandergrass: 85
Alexandergrass; Rate 500 g/ha
  Plant response rating, Alexandergrass: 100
dallisgrass; [3]
  Plant response rating, Dallisgrass: 0
dallisgrass; [4]
  Plant response rating, Dallisgrass: 75
dallisgrass; [5]
  Plant response rating, Dallisgrass: 75
dallisgrass; [6]
  Plant response rating, Dallisgrass: 98
dallisgrass; Rate 250 g/ha
  Plant response rating, Dallisgrass: 98
dallisgrass; Rate 500 g/ha
  Plant response rating, Dallisgrass: 100
Pitted morningglory; [3]
  Plant response rating, P. morninglory: 0
Pitted morningglory; [4]
  Plant response rating, P. morninglory: 0
Pitted morningglory; [5]
  Plant response rating, P. morninglory: 0
Pitted morningglory; [6]
  Plant response rating, P. morninglory: 0
Pitted morningglory; Rate 250 g/ha
  Plant response rating, P. morninglory: 0
Pitted morningglory; Rate 500 g/ha
  Plant response rating, P. morninglory: 10
bermuda-grass; [3]
  Plant response rating, Bermudagrass: 75
bermuda-grass; [4]
  Plant response rating, Bermudagrass: 98
bermuda-grass; [5]
  Plant response rating, Bermudagrass: 98
bermuda-grass; [6]
  Plant response rating, Bermudagrass: 100
bermuda-grass; Rate 250 g/ha
  Plant response rating, Bermudagrass: 100
bermuda-grass; Rate 500 g/ha
  Plant response rating, Bermudagrass: 100
Spanishneedles; [3]
  Plant response rating, Spanishneedles: 0
Spanishneedles; [4]
  Plant response rating, Spanishneedles: 0
Spanishneedles; [5]
  Spanishneedles plant response rating: 0
Spanishneedles; [6]
  Spanishneedles plant response rating: 0
Spanishneedles; Rate 500 g/ha
  Plant response rating, Spanishneedles: 10
Large crabgrass; [3]
  Plant response rating Large crabgrass: 75
Large crabgrass; [4]
  Plant response rating Large crabgrass: 75
Large crabgrass; [5]
  Plant response rating Large crabgrass: 85
Large crabgrass; [6]
  Plant response rating Large crabgrass: 100
Large crabgrass; Rate 250 g/ha
  Plant response rating Large crabgrass: 100
Large crabgrass; Rate 500 g/ha
  Plant response rating Large crabgrass: 100
Tall mallow; [3]
  Plant response rating, Tall Mallow: 0
Tall mallow; [4]
  Plant response rating, Tall Mallow: 0
Tall mallow; [5]
  Tall Mallow plant response rating: 0
Tall mallow; [6]
  Tall Mallow plant response rating: 0
Tall mallow; Rate 250 g/ha
  Plant response rating, Tall Mallow: 0
Tall mallow; Rate 500 g/ha
  Plant response rating, Tall Mallow: 0
Surinam grass; [3]
  Plant response rating, Surinam grass: 0
Surinam grass; [4]
  Plant response rating, Surinam grass: 20
Surinam grass; [5]
  Surinam grass plant response rating: 65
Surinam grass; [6]
  Surinam grass plant response rating: 75
Surinam grass; Rate 250 g/ha
  Plant response rating, Surinam grass: 75
Surinam grass; Rate 500 g/ha
  Plant response rating, Surinam grass: 85
Green foxtail [1]; Rate 250 g/ha
  Plant response rating, Green foxtail: 100
Green foxtail [1]; Rate 500 g/ha
  Plant response rating, Green foxtail: 100
Green foxtail [2]; Preemergence; Rate 16 g/ha; 0 to 100 scale, 0 no injury, 100 complete control
  Plant response rating, Green foxtail: 0
Green foxtail [2]; Preemergence; Rate 32 g/ha; 0 to 100 scale, 0 no injury, 100 complete control
  Plant response rating, Green foxtail: 70
Green foxtail [2]; Rate 16 g/ha; Preemergence; 0 to 100 scale, 0 no injury, 100 complete control
  Plant response rating, Green foxtail: 0
Green foxtail [2]; Rate 32 g/ha; Preemergence; 0 to 100 scale, 0 no injury, 100 complete control
  Plant response rating, Green foxtail: 75
Green foxtail [2]; [7]
  Green foxtail plant response rating: 85
  Plant response rating, Green foxtail: 85
Green foxtail [2]; [8]
  Green foxtail plant response rating: 100
  Plant response rating, Green foxtail: 100
Green foxtail [2]; Rate 250 g/ha; Preemergence; 0 to 100 scale
  Plant response rating, Green foxtail: 100
Green foxtail [2]; [9]
  Plant response rating, Green foxtail: 100
Common groundsel; [3]
  Plant response rating, Com. groundsel: 0
Common groundsel; [4]
  Plant response rating, Com. groundsel: 0
Common groundsel; [5]
  Plant response rating, Com. groundsel: 10
Common groundsel; [6]
  Plant response rating, Com. groundsel: 10
Common groundsel; Rate 250 g/ha
  Plant response rating, Com. groundsel: 10
Common groundsel; Rate 500 g/ha
  Plant response rating, Com. groundsel: 98
sandbur; [3]
  Plant response rating, Sandbur: 0
sandbur; [4]
  Plant response rating, Sandbur: 0
sandbur; [5]
  Sandbur plant response rating: 0
sandbur; [6]
  Sandbur plant response rating: 40
sandbur; Rate 250 g/ha
  Plant response rating, Sandbur: 50
sandbur; Rate 500 g/ha
  Plant response rating, Sandbur: 100
itchgrass; [3]
  Plant response rating, Itchgrass: 40
itchgrass; [4]
  Plant response rating, Itchgrass: 40
itchgrass; [5]
  Plant response rating, Itchgrass: 40
itchgrass; [6]
  Plant response rating, Itchgrass: 50
itchgrass; Rate 250 g/ha
  Plant response rating, Itchgrass: 50
itchgrass; Rate 500 g/ha
  Plant response rating, Itchgrass: 50

## CCn1c(=O)on(C(=O)N(c2ccccc2)C(C)C)c1=O [Compound 117]
goosegrass; [5]
  Plant response rating, Goosegrass: 85
goosegrass; [6]
  Plant response rating, Goosegrass: 100
goosegrass; Rate 500 g/ha
  Plant response rating, Goosegrass: 100
Purple nutsedge; [5]
  Purple nutsedge plant response rating: 0
Purple nutsedge; [6]
  Purple nutsedge plant response rating: 0
Purple nutsedge; Rate 500 g/ha
  Plant response rating, Purple nutsedge: 100
Johnson grass; [5]
  Plant response rating Johnsongrass: 90
Johnson grass; [6]
  Plant response rating Johnsongrass: 90
Johnson grass; Rate 500 g/ha
  Plant response rating Johnsongrass: 100
guineagrass; [5]
  Plant response rating, Guineagrass: 100
guineagrass; [6]
  Plant response rating, Guineagrass: 100
guineagrass; Rate 500 g/ha
  Plant response rating, Guineagrass: 100
Alexandergrass; [5]
  Plant response rating, Alexandergrass: 90
Alexandergrass; [6]
  Plant response rating, Alexandergrass: 90
Alexandergrass; Rate 500 g/ha
  Plant response rating, Alexandergrass: 98
dallisgrass; [5]
  Plant response rating, Dallisgrass: 85
dallisgrass; [6]
  Plant response rating, Dallisgrass: 95
dallisgrass; Rate 500 g/ha
  Plant response rating, Dallisgrass: 100
Pitted morningglory; [5]
  Plant response rating, P. morninglory: 0
Pitted morningglory; [6]
  Plant response rating, P. morninglory: 20
Pitted morningglory; Rate 500 g/ha
  Plant response rating, P. morninglory: 40
bermuda-grass; [5]
  Plant response rating, Bermudagrass: 98
bermuda-grass; [6]
  Plant response rating, Bermudagrass: 100
bermuda-grass; Rate 500 g/ha
  Plant response rating, Bermudagrass: 100
Spanishneedles; [5]
  Spanishneedles plant response rating: 0
Spanishneedles; [6]
  Spanishneedles plant response rating: 0
Spanishneedles; Rate 500 g/ha
  Plant response rating, Spanishneedles: 0
Large crabgrass; [5]
  Plant response rating Large crabgrass: 98
Large crabgrass; [6]
  Plant response rating Large crabgrass: 98
Large crabgrass; Rate 500 g/ha
  Plant response rating Large crabgrass: 100
Tall mallow; [5]
  Tall Mallow plant response rating: 40
Tall mallow; [6]
  Tall Mallow plant response rating: 65
Tall mallow; Rate 500 g/ha
  Plant response rating, Tall Mallow: 100
Surinam grass; [5]
  Surinam grass plant response rating: 80
Surinam grass; [6]
  Surinam grass plant response rating: 100
Surinam grass; Rate 500 g/ha
  Plant response rating, Surinam grass: 100
Green foxtail [1]; Rate 500 g/ha
  Plant response rating, Green foxtail: 100
Green foxtail [2]; [7]
  Green foxtail plant response rating: 100
  Plant response rating, Green foxtail: 100
Green foxtail [2]; [8]
  Green foxtail plant response rating: 100
  Plant response rating, Green foxtail: 100
Green foxtail [2]; [9]
  Plant response rating, Green foxtail: 100
Common groundsel; [5]
  Plant response rating, Com. groundsel: 0
Common groundsel; [6]
  Plant response rating, Com. groundsel: 75
Common groundsel; Rate 500 g/ha
  Plant response rating, Com. groundsel: 100
sandbur; [5]
  Sandbur plant response rating: 0
sandbur; [6]
  Sandbur plant response rating: 0
sandbur; Rate 500 g/ha
  Plant response rating, Sandbur: 100
itchgrass; [5]
  Plant response rating, Itchgrass: 40
itchgrass; [6]
  Plant response rating, Itchgrass: 75
itchgrass; Rate 500 g/ha
  Plant response rating, Itchgrass: 100

— patent US6737383B1, “Herbicidal oxadiazolidines” (priority 1999, dated 2004)
